Data from patent US20230235022A1, “NEUTROPHIL ELASTASE BINDING PEPTIDES AND COMPOSITIONS THEREOF” (CASE WESTERN RESERVE UNIVERSITY, priority 2020, published 2023).

What was measured:
neutrophils = assay: Neutrophil viability with free or encapsulated HCQ; assay type: cell-based
[1] = Lethality after intravenous administration of HCQ in mouse; assay type: in vivo
[2] = target: RCL-derived NE binding peptide (NEBP)

CCN(CCO)CCCC(C)Nc1ccnc2cc(Cl)ccc12 (stereo not shown) [free HCQ, hydroxychloroquine]
concentration at which neutrophil viability is affected (neutrophils): ≥ 10^3 ng/ml
lethality [1]: high lethality

B1: human neutrophil elastase (h-NE) (protein)
chain: IVGGRRARPHAWPFMVSLQLRGGHFCGATLIAPNFVMSAAHCVANVNVRAVRVVLGAHNLSRREPTRQVFAVQRIFENGYDPVNLLNDIVILQLNGSATINANVQVAQLPAQGRRLGNGVQCLAMGWGLLGRNRGIASVLQELNVTVVTSLCRRSNVCTLVRGRQAGVCFGDSGSPLVCNGLIHGIASFVRGGCASGLYPDAFAPVAQFVNWIDSIIQ
HPLC-based analysis of cleavage by NE [2]: such peptides are not cleaved by NE

B2: mouse neutrophil elastase (m-NE) (protein)
chain: IVGGRPARPHAWPFMASLQRRGGHFCGATLIARNFVMSAAHCVNGLNFRSVQVVLGAHDLRRQERTRQTFSVQRIFENGFDPSQLLNDIVIIQLNGSATINANVQVAQLPAQGQGVGDRTPCLAMGWGRLGTNRPSPSVLQELNVTVVTNMCRRRVNVCTLVPRRQAGICFGDSGGPLVCNNLVQGIDSFIRGGCGSGLYPDAFAPVAEFADWINSIIRSHNDHLLTHPKDREGRTN
HPLC-based analysis of cleavage by NE [2]: such peptides are not cleaved by NE
